Usually IC50 stands for the midpoint of a concentration-inhibition curve.

Each structure is given as a SMILES string.

This test has as its target T1, human TRPC6 (Homo sapiens, UniProt Q9Y210).
T1 construct: expressed in transfected cells
T1 sequence (Q9Y210 1-931): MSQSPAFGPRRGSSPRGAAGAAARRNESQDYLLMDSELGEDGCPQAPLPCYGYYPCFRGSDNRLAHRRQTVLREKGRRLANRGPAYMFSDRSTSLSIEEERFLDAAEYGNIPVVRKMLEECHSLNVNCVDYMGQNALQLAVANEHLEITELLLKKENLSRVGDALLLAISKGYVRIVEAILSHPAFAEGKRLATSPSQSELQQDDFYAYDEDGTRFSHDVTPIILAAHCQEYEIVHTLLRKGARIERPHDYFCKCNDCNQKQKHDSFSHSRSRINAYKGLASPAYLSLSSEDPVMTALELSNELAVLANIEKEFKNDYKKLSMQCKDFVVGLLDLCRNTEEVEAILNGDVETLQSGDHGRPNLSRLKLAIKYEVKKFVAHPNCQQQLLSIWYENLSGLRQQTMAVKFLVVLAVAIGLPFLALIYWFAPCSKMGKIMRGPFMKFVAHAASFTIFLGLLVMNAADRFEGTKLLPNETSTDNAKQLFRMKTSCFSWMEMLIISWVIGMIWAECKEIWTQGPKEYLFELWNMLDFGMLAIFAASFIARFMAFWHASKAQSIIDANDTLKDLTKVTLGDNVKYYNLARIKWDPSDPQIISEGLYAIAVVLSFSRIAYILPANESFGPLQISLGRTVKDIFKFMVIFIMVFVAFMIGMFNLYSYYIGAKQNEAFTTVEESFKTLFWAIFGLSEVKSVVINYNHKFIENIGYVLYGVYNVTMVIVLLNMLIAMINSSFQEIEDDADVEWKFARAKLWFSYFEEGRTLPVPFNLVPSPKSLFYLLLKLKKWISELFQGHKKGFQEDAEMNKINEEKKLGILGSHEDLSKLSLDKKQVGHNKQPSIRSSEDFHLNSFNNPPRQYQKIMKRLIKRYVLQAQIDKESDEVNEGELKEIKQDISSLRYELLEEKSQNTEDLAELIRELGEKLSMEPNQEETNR
The test is described as follows: High throughput screening assay: Fluo4/AM calcium fluorescence in HEK293/TREx cells expressing human TRPC6, agonist GSK1702934A (single concentration 10 μM and IC50 curves). The class given is cell-based. The following applies: antagonist effect against human TRPC6, 7 concentrations 20 μM to 0.027 μM, triplicate. From the text:
High Throughput Screening Assay
This screening assay measures human TRPC6 (transient receptor potential cation channel, subfamily C, member 6) ion channel activation via addition either of the commercially available DAG ligand analogue OAG (1-oleoyl-2-acetyl-sn-glycerol) or of the TRPC6 agonist 1-[1-(4,5,6,7,8-pentahydrocyclohepta[2,1-d]thiophen-2-ylcarbonyl)-4-piperidyl]-3-hydrobenzimidazol-2-one (GSK1702934A). The assay utilizes a fluorescent calcium sensor 4-(6-Acetoxymethoxy-2,7-difluoro-3-oxo-9-xanthenyl)-4′-methyl-2,2′-(ethylenedioxy)dianiline-N,N,N′,N′-tetraacetic acid tetrakis(acetoxymethyl) ester (Fluo4/AM) dye from Molecular Devices. Changes (increases) in intracellular calcium concentration as measured by the fluorescent signal increase provide a measurement of channel activity.
The commercially available HEK293/TREx line (Invitrogen) was stably transfected with a human TRPC6 construct and screened by conventional calcium imaging to find clones with human TRPC6 expression following stimulation with 1 μg/ml tetracycline. These cells were maintained in the growth medium recommended by the manufacturer supplemented with 100 μg/ml hygromycin to promote retention of the human TRPC6 construct. After growing to near confluency, cells were plated at a density of ^˜35,000 cells/well in 384 well CellBind plates (Corning) in the presence of 1 μg/ml tetracycline, and allowed to grow for 20-30 hrs. A nearly confluent monolayer resulted. Growth media was removed from the wells and cells were then loaded with […] Fluo4/AM diluted in Ringer's Solution (6.5 g NaCl, 0.42 g KCl, 0.25 g CaCl2) and 0.2 g of sodium bicarbonate; pH 7.4) supplemented with 1% Pluronic F-127 to a final concentration of 0.5 μM and incubated for 60 min, at room temperature. Dye solution was then removed from the cells by inverting plates with a sharp flick, and replaced with 25 μl Ringer's. Following ^˜0.5 hour for recovery from loading, cells were assayed using the Hamamatsu FDSS 6000 system, which permitted illumination at 485 nm. Frames were acquired at a rate of 0.2 Hz. During the assay, the plates were continuously vortexed, with pipette mixing of wells following addition of each reagent. For the screening assay, 26 μl of a diluted compound stock (at 50 μM) was added to each well for 2 minutes following the collection of a short (4 frame) baseline. 13 μl of agonist solution consisting of 125 nM GSK1702934A diluted in high-Ca2+Ringer solution (containing 90 mM Ca2+) was then added to each well, achieving a final concentration of 20 mM Ca2+ and 10 μM test compound. Data was collected for ^˜3 minutes following addition of high Ca2+Ringer. The fluorescent intensity observed at a particular timepoint for each well was divided by the initial fluorescent intensity for that well and the overall response was determined by averaging the resulting fluorescent ratio of the last 4 frames acquired during the experiment excepting the final frame. Negative and Positive controls were included on each plate. Negative controls wells consisted of HEK293/TREx TRPC6 cells exposed to assay buffer and agonist solution, but no test compound. Positive control consisted of wells consisted of HEK293/TREx TRPC6 cells exposed to 25 μM 3-[(2-chlorophenoxy)methyl]phenyl piperidyl ketone (Chembridge) diluted in Ringer's solution and agonist solution. These controls defined zero percent and 100 percent block respectively, and intensity of each well was normalized to these values.
Compounds were tested in triplicate at all concentrations. Standard software was used to fit IC50 curves.
With `COc1cc(-c2cnc(C(=O)N3CCC(c4ccc(N)nn4)CC3)cc2OC)ccc1F` [Compound 14, [4-(6-Amino-pyridazin-3-yl)-piperidin-1-yl]-[5-(4-fluoro-3-methoxy-phenyl)-4-methoxy-pyridin-2-yl]-methanone], the IC50 came out at 3300 nM.
To `CCc1ccc(-c2ccc(C(=O)N3CCC(c4ccc(N)nn4)CC3)cc2)cc1` [Compound 2, [4-(6-Amino-pyridazin-3-yl)-piperidin-1-yl]-(4′-ethyl-biphenyl-4-yl)-methanone] belongs 2000 nM.
To `COc1cc(C(=O)N2CCC(c3ccc(N)nn3)CC2)ccc1-c1ccc(OCC2CC2(C)C)nc1` (centres unmarked) [Compound 77, [4-(6-Amino-pyridazin-3-yl)-piperidin-1-yl]-{4-[6-(2,2-dimethyl-cyclopropylmethoxy)-pyridin-3-yl]-3-methoxy-phenyl}-methanone] belongs 160 nM; to `COc1cc(C(=O)N2CCC(c3nnc(N)cc3OC)CC2)ncc1-c1ccc(C(F)(F)F)nc1` [Compound 86, [4-(6-Amino-4-methoxy-pyridazin-3-yl)-piperidin-1-yl]-(4-methoxy-6′-trifluoromethyl-[3,3′]bipyridinyl-6-yl)-methanone], 660 nM; to `COc1cc(C(=O)N2CCC(c3ccc(N)nn3)CC2)ncc1-c1ccc(OCC(F)(F)F)cc1` [Compound 29, [4-(6-Amino-pyridazin-3-yl)-piperidin-1-yl]-{4-methoxy-5-[4-(2,2,2-trifluoro-ethoxy)-phenyl]-pyridin-2-yl}-methanone], 110 nM.
To `Cc1cc(-c2ccc(C(F)(F)F)cc2)ccc1C(=O)N1CCC(c2ccc(N)nn2)CC1` [Compound 69, [4-(6-Amino-pyridazin-3-yl)-piperidin-1-yl]-(3-methyl-4′-trifluoromethyl-biphenyl-4-yl)-methanone] belongs 360 nM; to `COc1cc(C(=O)N2CCC(c3ccc(N)nn3)CC2)ncc1-c1ccc(OC2CC2)cc1` [Compound 41, [4-(6-Amino-pyridazin-3-yl)-piperidin-1-yl]-[5-(4-cyclopropoxy-phenyl)-4-methoxy-pyridin-2-yl]-methanone], 130 nM.
Take `COc1cc(C(=O)N2CCC(c3ccc(N)nn3)CC2)ccc1-c1ccnc(C(F)(F)F)c1` [Compound 61, [4-(6-Amino-pyridazin-3-yl)-piperidin-1-yl]-[3-methoxy-4-(2-trifluoromethyl-pyridin-4-yl)-phenyl]-methanone]: the IC50 was 4100 nM.
To `COc1cc(C(=O)N2CCN(c3cnc(N)cc3OC)C[C@H]2CO)ncc1-c1ccc(F)cc1` [Compound 102, [(S)-4-(6-Amino-4-methoxy-pyridin-3-yl)-2-hydroxymethyl-piperazin-1-yl]-[5-(4-fluoro-phenyl)-4-methoxy-pyridin-2-yl]-methanone] belongs 840 nM; to `COc1cc(C(=O)N2CCN(c3ccc(N)nc3)[C@H](C)C2)ccc1-c1ccc(C(F)(F)F)cc1` [Compound 114, [(R)-4-(6-Amino-pyridin-3-yl)-3-methyl-piperazin-1-yl]-(2-methoxy-4′-trifluoromethyl-biphenyl-4-yl)-methanone], 67 nM; to `Nc1ccc(C2CCN(C(=O)c3ccc(-c4ccc(Cl)cc4)cc3)CC2)nn1` [Compound 4, [4-(6-Amino-pyridazin-3-yl)-piperidin-1-yl]-(4′-chloro-biphenyl-4-yl)-methanone], 1900 nM.
For `COc1cc(-c2cnc(C(=O)N3CCC(c4ccc(N)nn4)CC3)cc2OC)ccc1OC(F)(F)F` [Compound 13], the IC50 was 88 nM.
Consider `COc1cc(C(=O)N2CCC(c3ccc(N)nn3)CC2)ncc1-c1ccc(OCC2CC2)cc1` [Compound 17, [4-(6-Amino-pyridazin-3-yl)-piperidin-1-yl]-[5-(4-cyclopropylmethoxy-phenyl)-4-methoxy-pyridin-2-yl]-methanone], for which the IC50 came out at 75 nM.
For `COc1cc(C(=O)N2CCC(c3ccc(N)nn3)CC2)ncc1-c1ccc(C(F)(F)F)c(OC)c1` [Compound 25] the value was 340 nM.

These data come from US11485740B2, “Inhibitors of TRPC6” (Boehringer Ingelheim International GmbH, priority 2018, dated 2022).
